Laboratory results taken from US20250313546A1, “NUCLEIC ACID BINDERS” (UNIVERSITY OF STRATHCLYDE, priority 2022, published 2025).
Converted amounts (≈) assume the structure as drawn.

How the values were obtained:
[1] = test system: T. vaginalis; test: Trichomonas resorufin assay; format: cell-based; settings: for IC50: Trichomonas vaginalis, read-out: IC50 T. vaginalis
[2] = test system: Staphylococcus aureus (ATCC 43300); test: Antibacterial MIC, broth microdilution (CLSI); format: cell-based; settings: for S. aureus Selectivity Indices, Group / S. aureus Selectivity Index (SI): SI, IC50 (μM)/MIC80 (μM), HEK293 cytotoxicity; for S. aureus Selectivity Index (SI): numeric value; for MIC80: Staphylococcus aureus, ATCC43300, read-out: MIC80 S. aureus
[3] = test system: Candida glabrata (ACPF3309); settings: Nakaseomyces glabratus, read-out: MIC99 Candida glabrata
[4] = test system: A. fumigatus A1160 (MFIG001); settings: Aspergillus fumigatus, read-out: MIC99 A. fumigatus A1160
[5] = test system: Enterococcus faecalis (ATCC 51299); test: Antibacterial MIC, broth microdilution (CLSI); format: cell-based; settings: for MIC80: Enterococcus faecalis, ATCC51299, read-out: MIC80 E. faecalis
[6] = test system: C. neoformans (F10025); settings: Cryptococcus neoformans, read-out: MIC99 C. neoformans
[7] = test system: Escherichia coli (ATCC 25922); test: Antibacterial MIC, broth microdilution (CLSI); format: cell-based; settings: Escherichia coli, ATCC25922; read-out: MIC80 E. coli
[8] = test system: PolyAU double stranded RNA; test: Fluorescence intercalator displacement (FID) assay, SYBR-safe probe; settings: 20 μM compound, 30° C., lower % = stronger binding
Method: (§1) The ability of compounds of the invention to bind to DNA and RNA was assessed using a fluorescence intercalator displacement assay. Genomic double stranded DNA (salmon) or PolyAU double stranded RNA is treated with probe molecule (Sybr-Safe) that increases its fluorescence upon binding to nucleic acids.
(§2) polyAU RNA (Polyadenylic acid—Polyuridylic acid sodium salt, double-stranded homopolymer, P1537, Merck) or genomic DNA (Deoxyribonucleic acid sodium salt from salmon testes, D1626, Merck) was dissolved in 1 mM pH 7.4 phosphate buffer (containing 0.27 mM potassium chloride, 13.7 mM sodium chloride) to a concentration of 1 mg/mL in, SybrSafe (SYBR® Safe DNA Gel Stain, ×10,000 in DMSO, S33102 Invitrogen) was used as supplied by the manufacturer in DMSO, and compounds of the invention were prepared as 10 mM stocks in DMSO. These stock solutions were diluted appropriately with each other and 1 mM phosphate buffer to give test solutions comprised of 20 μM compound of the invention, 12500-fold dilution of SybrSafe and 3.76 ng/mL RNA/DNA. Control solutions of RNA/DNA and SybrSafe, RNA/DNA, and SybrSafe at these concentrations were also prepared. Test and control solutions were heated to 30° C. and the fluorescence of each solution was measured using the SYBER filter setting of a StepOnePlus using melt analysis mode (StepOne Software v2.3). The reduction of fluorescence due to the binding of the compound of the invention to the RNA/DNA was calculated as a normalised percentage based on the fluorescence measured due to the control with SybrSafe and RNA/DNA as maximum and the control with only SybrSafe as minimum.
(§3) A reduction in normalised % is indicative of probe displacement and thus strong nucleic acid binding.

[9] = test system: Genomic double stranded DNA (salmon); test: as above; settings: 20 μM compound, 30° C., lower % = stronger binding
Method: as §1, §2, §3

SMILES | IC50 [1] [µM] | S. aureus Selectivity Indices, Group ([2]; Quaternary ammoniums) | S. aureus Selectivity Index (SI) [2] | MIC80 [2] [µM] | MIC99 [3] [µg/mL] | MIC99 [4] [µg/mL] | MIC80 [5] [µM] | MIC99 [6] [µg/mL] | MIC80 [7] [µM] | % Normalised Fluorescence with polyAU RNA [8] [%] | % Normalised Fluorescence with gDNA [9] [%] | T. vaginalis Selectivity Indices, Group ([1]; SI, IC50 (μM)/IC50 (μM), HEK293 cytotoxicity, Quaternary ammoniums) | T. vaginalis Selectivity Indices, Group ([1]; SI, IC50 (μM)/IC50 (μM), HEK293 cytotoxicity, Amides) | T. vaginalis Selectivity Index (SI) ([1]; SI, IC50 (μM)/IC50 (μM), HEK293 cytotoxicity, numeric value) | S. aureus Selectivity Indices, Group ([2]; Amides) | E. faecalis Selectivity Indices, Group ([5]; SI, IC50 (μM)/MIC80 (μM), HEK293 cytotoxicity, Amides) | E. faecalis Selectivity Index (SI) ([5]; SI, IC50 (μM)/MIC80 (μM), HEK293 cytotoxicity, numeric value) | S. aureus Selectivity Indices, Group ([2]; Alkyl Amidines and NH Pyrroles) | T. vaginalis Selectivity Indices, Group ([1]; SI, IC50 (μM)/IC50 (μM), HEK293 cytotoxicity, Alkyl Amidines and NH Pyrroles) | E. faecalis Selectivity Indices, Group ([5]; SI, IC50 (μM)/MIC80 (μM), HEK293 cytotoxicity, Alkyl Amidines and NH Pyrroles)
CCCCCCCC[N+](C)(C)CCNC(=O)c1cc(NC(=O)c2cc(NC(=O)c3ccc(/C=C/c4cnc5ccccc5c4)cc3)cn2C)cn1C [Ic7, (E)-N,N-dimethyl-N-(2-(1-methyl-4-(1-methyl-4-(4-(2-(quinolin-3-yl)vinyl)benzamido)-1H-pyrrole-2-carboxamido)-1H-pyrrole-2-carboxamido)ethyl)octan-1-aminium] | 5 to 50 | D (Group D: SI > 10) | 13 | < 5 | 5 to 25 | > 50 | > 100 | 5 to 25 | > 100 |  |  |  |  |  |  |  |  |  |  | 
[H]/N=C(\CCNC(=O)c1cc(NC(=O)c2cc(NC(=O)c3ccc(C=Cc4ccc5nonc5c4)cc3)cn2C)cn1C)NC [Ia3, (E)-4-(4-(2-(benzo[c][1,2,5]oxadiazol-5-yl)vinyl)benzamido)-N-(5-((3-imino-3-(methylamino)propyl)carbamoyl)-1-methyl-1H-pyrrol-3-yl)-1-methyl-1H-pyrrole-2-carboxamide] |  |  |  | < 5 |  | < 5 |  |  | > 100 | 38 | 13 |  |  |  |  |  |  |  |  | 
CCCCCC[N+](C)(C)CCNC(=O)c1cc(NC(=O)c2cc(NC(=O)c3ccc(/C=C/c4cnc5ccccc5c4)cc3)cn2C)cn1C [Ic5, (E)-N,N-dimethyl-N-(2-(1-methyl-4-(1-methyl-4-(4-(2-(quinolin-3-yl)vinyl)benzamido)-1H-pyrrole-2-carboxamido)-1H-pyrrole-2-carboxamido)ethyl)hexan-1-aminium] | 1 to 5 | C (Group C: 5 < SI <= 10) |  | < 5 | 5 to 25 | > 50 | 5 to 25 |  | > 100 |  |  | B (Group B: 0.8 < SI <= 1.5) |  |  |  |  |  |  |  | 
CCCCCCCCCCCCCCCC[N+](C)(C)CCNC(=O)c1cc(NC(=O)c2cc(NC(=O)c3ccc(/C=C/c4cnc5ccccc5c4)cc3)cn2C)cn1C [Ic15, (E)-N,N-dimethyl-N-(2-(1-methyl-4-(1-methyl-4-(4-(2-(quinolin-3-yl)vinyl)benzamido)-1H-pyrrole-2-carboxamido)-1H-pyrrole-2-carboxamido)ethyl)hexadecan-1-aminium] | 5 to 50 |  |  |  | > 50 | > 50 |  | 25 to 50 |  |  |  |  |  |  |  |  |  |  |  | 
C/N=C(/CCNC(=O)c1cc(NC(=O)c2cc(NC(=O)c3ccc(/C=C/c4ccc(C(F)(F)F)cc4)cc3)cn2C)cn1C)NC [Ia5, 1-methyl-4-(1-methyl-4-(4-((E)-4-(trifluoromethyl)styryl)benzamido)-1H-pyrrole-2-carboxamido)-N—((Z)-3-(methylamino)-3-(methylimino)propyl)-1H-pyrrole-2-carboxamide] |  |  |  | < 5 |  | 25 to 50 (≈ 39.5 to 78.9 µM) |  |  | > 100 | 12 | 21 |  |  |  |  |  |  |  |  | 
[H]/N=C(\CCNC(=O)c1cc(NC(=O)c2cc(NC(=O)c3ccc(C=Cc4ccc5nonc5c4)cc3)cn2C)cn1C)N1CCN(C)CC1 [Ib4, (E)-4-(4-(2-(benzo[c][1,2,5]oxadiazol-5-yl)vinyl)benzamido)-N-(5-((3-imino-3-(4-methylpiperazin-1-yl)propyl)carbamoyl)-1-methyl-1H-pyrrol-3-yl)-1-methyl-1H-pyrrole-2-carboxamide] |  |  |  | < 5 | 25 to 50 (≈ 37.7 to 75.4 µM) |  | < 5 | 5 to 25 (≈ 7.54 to 37.7 µM) | > 100 | 5 | 20 |  |  |  |  |  |  |  |  | 
CCCCNC(=O)c1cc(NC(=O)c2cc(NC(=O)c3ccc(/C=C/c4cnc5ccccc5c4)cc3)cn2C)cn1C [IVa5, (E)-N-butyl-1-methyl-4-(1-methyl-4-(4-(2-(quinolin-3-yl)vinyl)benzamido)-1H-pyrrole-2-carboxamido)-1H-pyrrole-2-carboxamide] | 1 to 5 |  |  | < 5 |  |  | < 5 |  | > 100 | 12 | 51 |  | C (Group C: SI > 0.5) | 2 | B (Group B: 1.4 < SI <= 3) | C (Group: C, 1.5 < SI <= 5) | 2 |  |  | 
CCCCCCCCCCCCCCC[N+](C)(C)CCNC(=O)c1cc(NC(=O)c2cc(NC(=O)c3ccc(/C=C/c4cnc5ccccc5c4)cc3)cn2C)cn1C [Ic14, (E)-N,N-dimethyl-N-(2-(1-methyl-4-(1-methyl-4-(4-(2-(quinolin-3-yl)vinyl)benzamido)-1H-pyrrole-2-carboxamido)-1H-pyrrole-2-carboxamido)ethyl)pentadecan-1-aminium] | 5 to 50 |  |  |  | 25 to 50 | > 50 |  | > 50 |  |  |  |  |  |  |  |  |  |  |  | 
[H]/N=C(\CCNC(=O)c1cc(NC(=O)c2cc(NC(=O)c3ccc(C=Cc4ccc5nonc5c4)cc3)cn2C)cn1C)NCCCN(C)C [Ia46, (E)-4-(4-(2-(benzo[c][1,2,5]oxadiazol-5-yl)vinyl)benzamido)-N-(5-((3-((3-(dimethylamino)propyl)amino)-3-iminopropyl)carbamoyl)-1-methyl-1H-pyrrol-3-yl)-1-methyl-1H-pyrrole-2-carboxamide] | 5 to 50 |  |  | 25 to 100 (≈ 16.6 to 66.5 µg/mL) |  |  | > 100 |  | > 100 | 2 | 10 |  |  |  |  |  |  |  |  | 
COc1ccc(/C=C/c2ccc(C(=O)Nc3cc(C(=O)Nc4cc(C(=O)NCCC(=N)NC(C)C)n(C)c4)n(C)c3)cc2)cc1 [Ia18, (E)-N-(3-imino-3-(isopropylamino)propyl)-4-(4-(4-(4-methoxystyryl)benzamido)-1-methyl-1H-pyrrole-2-carboxamido)-1-methyl-1H-pyrrole-2-carboxamide] | 5 to 50 |  |  | 5 to 25 (≈ 3.05 to 15.2 µg/mL) |  | > 50 | 5 to 25 (≈ 3.05 to 15.2 µg/mL) | 5 to 25 (≈ 8.2 to 41 µM) | 25 to 100 (≈ 15.2 to 61 µg/mL) | 9 | 6 |  |  |  |  |  |  | B (Group B: 3 < SI <= 5) |  | 
C/N=C(/CCNC(=O)c1cc(NC(=O)c2cc(NC(=O)c3ccc(/C=C/c4ccc5ccccc5c4)cc3)cn2C)cn1C)NC [Ia7, 1-methyl-4-(1-methyl-4-(4-((E)-2-(naphthalen-2-yl)vinyl)benzamido)-1H-pyrrole-2-carboxamido)-N—((Z)-3-(methylamino)-3-(methylimino)propyl)-1H-pyrrole-2-carboxamide] |  |  |  | < 5 |  | 25 to 50 (≈ 40.6 to 81.2 µM) |  |  | > 100 | 24 | 10 |  |  |  |  |  |  |  |  | 
Cn1cc(NC(=O)c2cc(NC(=O)c3ccc(/C=C/c4cnc5ccccc5c4)cc3)cn2C)cc1C(=O)NCCC(=N)N1CCSCC1 [Ib7, (E)-N-(3-imino-3-thiomorpholinopropyl)-1-methyl-4-(1-methyl-4-(4-(2-(quinolin-3-yl)vinyl)benzamido)-1H-pyrrole-2-carboxamido)-1H-pyrrole-2-carboxamide] | 1 to 5 |  | 26 | < 5 | 5 to 25 (≈ 7.41 to 37 µM) |  | < 5 | 5 to 25 (≈ 7.41 to 37 µM) | > 100 | 7 | 22 |  |  |  |  |  |  | D (D: SI > 10) | B (Group B: 8 < SI <= 16) | C (Group C: 5 < SI <= 10)
